How the values were obtained:
Rat [1] = assay: concentration in brain after dosing; conditions: 12 h; dosed: Fluorotelomer alcohol 8+2; 24 mg/kg; oral; Male; Harlan Sprague Dawley
Rat [2] = assay: concentration in plasma after dosing; conditions: 12 h; dosed: Primidone; 130 mg/kg; oral; Male; Harlan Sprague Dawley
Rat [3] = assay: concentration in plasma after dosing; conditions: 30 h; dosed: Primidone; 130 mg/kg; oral; Female; F344
Rat [4] = assay: concentration in plasma after dosing; conditions: 0.25 h; dosed: Primidone; 80 mg/kg; oral; Female; Harlan Sprague-Dawley
Rat [5] = assay: concentration in heart after dosing; conditions: 20 min; dosed: Bis 2-Chloroethoxy Methane; 20 mg/kg; iv; Male; F344
Rat [6] = assay: concentration in liver after dosing; conditions: 4 h; dosed: Bis 2-Chloroethoxy Methane; 20 mg/kg; iv; Male; F344
Rat [7] = assay: concentration in plasma after dosing; conditions: 20 min; dosed: Bis 2-Chloroethoxy Methane; 20 mg/kg; iv; Female; F344
Rat [8] = assay: concentration in plasma after dosing; conditions: 6 h; dosed: Bis 2-Chloroethoxy Methane; 20 mg/kg; iv; Male; F344
Rat [9] = assay: concentration in plasma after dosing; conditions: 5 min; dosed: dichloroacetic acid; 10 mg/kg; oral; Male; Harlan Sprague Dawley
Rat [10] = assay: concentration in plasma after dosing; conditions: dosed: dichloroacetic acid, 10 mg/kg, oral, Male, Harlan Sprague Dawley
rat [11] = assay: concentration in blood after dosing; conditions: dosed: p-tert-octylphenol, Sprague-Dawley
Rat [12] = assay: concentration in plasma after dosing; conditions: 2.5 min; dosed: Wyeth-14643; 2.0 mg/kg; iv; Male; Sprague-Dawley
Rat [13] = assay: concentration in plasma after dosing; conditions: dosed: Wyeth-14643, 1.0 mg/kg, oral, Male, Sprague-Dawley
Rat [14] = assay: concentration in plasma after dosing; conditions: 10 min; dosed: Thiodiglycolic Acid; 20 mg/kg; iv; Female; Harlan Sprague Dawley
Rat [15] = assay: concentration in heart after dosing; conditions: 2 h; dosed: Thiodiglycolic Acid; 20 mg/kg; iv; Male; Harlan Sprague Dawley
Rat [16] = assay: concentration in thymus after dosing; conditions: 20 min; dosed: Thiodiglycolic Acid; 20 mg/kg; iv; Female; F344
Rat [17] = assay: concentration in plasma after dosing; conditions: 4 h; dosed: Thiodiglycolic Acid; 20 mg/kg; iv; Male; Harlan Sprague Dawley
Rat [18] = assay: concentration in plasma after dosing; conditions: 20 h; dosed: Di-n-butyl phthalate; 200 mg/kg; oral; Male; Sprague-Dawley

OCCC(F)(F)C(F)(F)C(F)(F)C(F)(F)C(F)(F)C(F)(F)C(F)(F)C(F)(F)F [Fluorotelomer alcohol 8+2]
Conditions	concentration in brain [ng/g]
Rat [1]	221

CCC1(c2ccccc2)C(=O)NC(=O)NC1=O [Phenobarbital]
Conditions	concentration in plasma [µg/mL]
Rat [2]	2.49
Rat [3]	2.12
Rat [4]	0.4

ClCCOCOCCCl [Bis 2-Chloroethoxy Methane]
Conditions	concentration in heart [ng/g]	concentration in liver [ng/g]	concentration in plasma [ng/mL]
Rat [5]	7220	–	–
Rat [6]	–	86.1	–
Rat [7]	–	–	4820
Rat [8]	–	–	12.2

O=C(O)C(Cl)Cl [dichloroacetic acid]
Conditions	concentration in plasma [µg/mL]
Rat [9]	0.43

Rat [10]
Conditions	concentration in plasma [µg/mL]
5 min	0.621
40 min	0.137

CC(C)(C)CC(C)(C)c1ccc(O)cc1 [octylphenol]
concentration in blood [ng/mL], rat [11]
Conditions	female	male
0.1573 h, 2 mg/kg, iv	–	159
0.1576 h, 4 mg/kg, iv	–	317
0.1581 h, 8 mg/kg, iv	–	942
0.1679 h, 2 mg/kg, iv	116	–
0.1763 h, 4 mg/kg, iv	283	–
0.1763 h, 8 mg/kg, iv	852	–
0.4805 h, 8 mg/kg, iv	–	376
0.4823 h, 125 mg/kg, oral	–	157
0.4883 h, 2 mg/kg, iv	–	63.6
0.4888 h, 4 mg/kg, iv	–	169
0.499 h, 250 mg/kg, oral	–	244
0.5015 h, 50 mg/kg, oral	–	63.7
0.5164 h, 2 mg/kg, iv	67.8	–
0.5164 h, 4 mg/kg, iv	141	–
0.5164 h, 8 mg/kg, iv	430	–
0.519 h, 125 mg/kg, oral	159	–
0.5202 h, 250 mg/kg, oral	222	–
0.5529 h, 50 mg/kg, oral	136	–
0.8196 h, 2 mg/kg, iv	–	46.6
0.8247 h, 8 mg/kg, iv	–	258
0.8286 h, 4 mg/kg, iv	–	107
0.8355 h, 2 mg/kg, iv	43.6	–
0.8355 h, 4 mg/kg, iv	89.6	–
0.8397 h, 8 mg/kg, iv	303	–
0.9901 h, 250 mg/kg, oral	–	379
0.9911 h, 125 mg/kg, oral	–	219
0.9923 h, 50 mg/kg, oral	–	116
1.038 h, 125 mg/kg, oral	271	–
1.051 h, 50 mg/kg, oral	87.5	–
1.147 h, 8 mg/kg, iv	–	210
1.155 h, 2 mg/kg, iv	–	28.8
1.16 h, 4 mg/kg, iv	–	69.7
1.167 h, 2 mg/kg, iv	23.8	–
1.167 h, 4 mg/kg, iv	71	–
1.167 h, 8 mg/kg, iv	229	–
1.486 h, 2 mg/kg, iv	–	24.8
1.487 h, 8 mg/kg, iv	–	169
1.499 h, 8 mg/kg, iv	170	–
1.5 h, 4 mg/kg, iv	–	59.3
1.503 h, 2 mg/kg, iv	25.3	–
1.503 h, 4 mg/kg, iv	59	–
1.994 h, 2 mg/kg, iv	16.1	–
1.994 h, 4 mg/kg, iv	46.2	–
1.994 h, 8 mg/kg, iv	128	–
2.003 h, 2 mg/kg, iv	–	22.4
2.003 h, 4 mg/kg, iv	–	39.3
2.004 h, 8 mg/kg, iv	–	122
2.038 h, 125 mg/kg, oral	235	–
2.052 h, 50 mg/kg, oral	109	–
2.08 h, 250 mg/kg, oral	–	305
2.081 h, 50 mg/kg, oral	–	128
2.081 h, 125 mg/kg, oral	–	171
2.989 h, 4 mg/kg, iv	–	23.4
2.993 h, 8 mg/kg, iv	–	72.1
2.998 h, 2 mg/kg, iv	15.9	–
2.998 h, 4 mg/kg, iv	33.8	–
3.015 h, 8 mg/kg, iv	101	–
3.991 h, 4 mg/kg, iv	–	12.2
3.996 h, 8 mg/kg, iv	–	40.2
3.997 h, 8 mg/kg, iv	57.6	–
4.014 h, 4 mg/kg, iv	21.7	–
4.016 h, 50 mg/kg, oral	70	–
4.022 h, 250 mg/kg, oral	320	–
4.03 h, 250 mg/kg, oral	–	260
4.031 h, 125 mg/kg, oral	–	160
4.032 h, 50 mg/kg, oral	–	85.1
4.038 h, 125 mg/kg, oral	268	–
6.016 h, 50 mg/kg, oral	69.2	–
6.02 h, 125 mg/kg, oral	210	–
6.021 h, 250 mg/kg, oral	268	–
6.034 h, 250 mg/kg, oral	–	192
6.07 h, 50 mg/kg, oral	–	87
6.07 h, 125 mg/kg, oral	–	123
7.933 h, 50 mg/kg, oral	–	77.3
8 h, 50 mg/kg, oral	93.2	–
8.003 h, 125 mg/kg, oral	205	95.8
8.005 h, 250 mg/kg, oral	357	–
8.019 h, 250 mg/kg, oral	–	210
11.97 h, 250 mg/kg, oral	373	–
11.98 h, 50 mg/kg, oral	69.7	–
11.99 h, 50 mg/kg, oral	–	37.2
11.99 h, 125 mg/kg, oral	–	84.2
11.99 h, 250 mg/kg, oral	–	157
12.02 h, 125 mg/kg, oral	209	–
24.01 h, 50 mg/kg, oral	24.7	–
24.02 h, 250 mg/kg, oral	–	107
24.03 h, 50 mg/kg, oral	–	7.77
24.03 h, 125 mg/kg, oral	63.5	–
24.04 h, 125 mg/kg, oral	–	28.8
24.04 h, 250 mg/kg, oral	307	–

concentration in blood [ng/mL], rat [11], 125 mg/kg
Conditions	0.5035 h	0.5155 h	1.054 h	2.015 h	4.058 h	5.98 h	8.091 h	12.04 h	24.03 h
female	–	19	–	–	–	–	–	–	–
male	23.9	–	39.1	61.8	90.3	102	180	122	54.7

Cc1cccc(Nc2cc(Cl)nc(SCC(=O)O)n2)c1C
Conditions	concentration in plasma [µg/mL]
Rat [12]	29.3

Rat [13]
Conditions	concentration in plasma [µg/mL]
2 h	0.709
8 h	0.189

O=C(O)CSCC(=O)O [Thiodiglycolic Acid]
Conditions	concentration in heart [ng/g]	concentration in plasma [ng/mL]	concentration in thymus [ng/g]
Rat [14]	–	40400	–
Rat [15]	1440	–	–
Rat [16]	–	–	5640
Rat [17]	–	615	–

CCCCOC(=O)c1ccccc1C(=O)O [Mono-n-butyl phthalate]
Conditions	concentration in plasma [µg/mL]
Rat [18]	1.87

Reference: EPA's CvTdb concentration-time database
